Experimental findings from ChEMBL document CHEMBL3352027, “Pharmacologically active metabolites, combination screening and target identification-driven drug repositioning in antituberculosis drug discovery” (2014) are described below.

As usually defined, the MIC is the lowest concentration found to suppress growth. High values mean a less susceptible organism, low ones a more susceptible organism.

≈ marks a conversion by molar mass, not a printed value.

The assay deals with Mycobacterium tuberculosis. The experiment in a line: Antitubercular activity against drug-resistant Mycobacterium tuberculosis. The assay is classed as functional.
Compound `CN[C@@H]1[C@H](O)[C@H](NC)[C@H]2O[C@]3(O)[C@H](O[C@@H]2[C@H]1O)O[C@H](C)C[C@H]3NC(=O)Cc1ccccn1` registered an MIC of 1.6 µg/mL (≈ 3.54 µM).

As for `CN[C@@H]1[C@H](O)[C@H](NC)[C@H]2O[C@]3(O)[C@H](O[C@@H]2[C@H]1O)O[C@H](C)C[C@H]3NC(=O)Cc1ccccc1`, inhibition of growth (MIC) required 1.6 µg/mL (≈ 3.54 µM).

Regarding `CN[C@@H]1[C@H](O)[C@H](NC)[C@H]2O[C@]3(O)[C@H](O[C@@H]2[C@H]1O)O[C@H](C)C[C@H]3NC(=O)Cc1ccc(F)cn1`, the lowest concentration to inhibit growth (MIC) was 1.6 µg/mL (≈ 3.4 µM).

On to `CN[C@@H]1[C@H](O)[C@H](NC)[C@H]2O[C@]3(O)[C@H](O[C@@H]2[C@H]1O)O[C@H](C)C[C@H]3NC(=O)Cc1ccc(Cl)cn1`, for which the MIC came to 1.6 µg/mL (≈ 3.29 µM).

Compound `CN[C@@H]1[C@H](O)[C@H](NC)[C@H]2O[C@]3(O)[C@H](O[C@@H]2[C@H]1O)O[C@H](C)C[C@H]3NC(=O)CNC(C)(C)C` displayed an MIC of 1.6 µg/mL (≈ 3.58 µM).

On to `CN[C@@H]1[C@H](O)[C@H](NC)[C@H]2O[C@]3(O)[C@H](O[C@@H]2[C@H]1O)O[C@H](C)C[C@H]3NC(=O)Cc1cscn1`, for which 1.6 µg/mL (≈ 3.49 µM) was the least that counted as inhibitory (MIC).

`CN[C@@H]1[C@H](O)[C@H](NC)[C@H]2O[C@]3(O)[C@H](O[C@@H]2[C@H]1O)O[C@H](C)C[C@H]3NC(=O)Cc1cc(Cl)ccn1`: the MIC was determined as 1.6 µg/mL (≈ 3.29 µM).
